# Test results reported in article PMC5218480 (PLoS ONE, 2017).
# Tested on: MV-4-11 cells
# Assay: Gene expression microarray analysis (Affymetrix PrimeView) and GSEA
# Assay type: cell-based, human
# Parameters: RFU PODN (11730768_x_at) / Fold change /veh PODN (11730768_x_at) / RFU LINC00158 (11744669_a_at) / Fold change /veh LINC00158 (11744669_a_at) / RFU DUSP10 (11751237_a_at) / Fold change /veh DUSP10 (11751237_a_at) / RFU ID3 (11757404_x_at) / Fold change /veh ID3 (11757404_x_at) / RFU PLEKHG5 (11737974_s_at) / Fold change /veh PLEKHG5 (11737974_s_at) / RFU LRRC4B (11730491_at) / Fold change /veh LRRC4B (11730491_at) / RFU GIMAP4 (11747438_a_at) / Fold change /veh GIMAP4 (11747438_a_at) / RFU KRT8 (11758183_x_at) / Fold change /veh KRT8 (11758183_x_at) / RFU CNN1 (11734310_a_at) / Fold change /veh CNN1 (11734310_a_at) / RFU VPS37D (11726825_at) / Fold change /veh VPS37D (11726825_at) / RFU C10orf10 (11716522_x_at) / Fold change /veh C10orf10 (11716522_x_at) / RFU KIR2DL2 /// KIR2DL4 /// KIR2DL5A /// KIR2DL5B /// KIR2DS1 /// KIR2DS2 /// KIR2DS3 /// KIR2DS4 /// KIR3DL3 /// KIR3DL3 /// KIR3DS1 (11738374_at) / Fold change /veh KIR2DL2 /// KIR2DL4 /// KIR2DL5A /// KIR2DL5B /// KIR2DS1 /// KIR2DS2 /// KIR2DS3 /// KIR2DS4 /// KIR3DL3 /// KIR3DL3 /// KIR3DS1 (11738374_at) / RFU C1QL1 (11718748_at) / Fold change /veh C1QL1 (11718748_at) / RFU TMPRSS4 (11747572_a_at) / Fold change /veh TMPRSS4 (11747572_a_at) / RFU HAMP (11756126_x_at) / Fold change /veh HAMP (11756126_x_at) / RFU RNFT2 (11725882_a_at) / Fold change /veh RNFT2 (11725882_a_at) / RFU NR4A2 (11747474_a_at) / Fold change /veh NR4A2 (11747474_a_at) / RFU ABCC12 (11746883_a_at) / Fold change /veh ABCC12 (11746883_a_at) / RFU TMEM136 (11760407_x_at) / Fold change /veh TMEM136 (11760407_x_at) / RFU CLDN22 /// WWC2 (11732394_at) / Fold change /veh CLDN22 /// WWC2 (11732394_at) / RFU HLA-DPB1 (11760878_x_at) / Fold change /veh HLA-DPB1 (11760878_x_at) / RFU SPINT1 (11716480_a_at) / Fold change /veh SPINT1 (11716480_a_at) / RFU GAP43 (11754022_s_at) / Fold change /veh GAP43 (11754022_s_at) / RFU A4GNT (11735810_at) / Fold change /veh A4GNT (11735810_at) / RFU PRB3 (11715151_x_at) / Fold change /veh PRB3 (11715151_x_at) / RFU TUBB4B (11761932_at) / Fold change /veh TUBB4B (11761932_at) / RFU CAPN14 (11732068_a_at) / Fold change /veh CAPN14 (11732068_a_at) / RFU TMCC2 (11721928_a_at) / Fold change /veh TMCC2 (11721928_a_at) / RFU IRGQ (11745062_a_at) / Fold change /veh IRGQ (11745062_a_at) / RFU FAM174B (11720279_a_at) / Fold change /veh FAM174B (11720279_a_at) / RFU TMPRSS4 (11748680_a_at) / Fold change /veh TMPRSS4 (11748680_a_at) / RFU FAM212B (11763350_a_at) / Fold change /veh FAM212B (11763350_a_at) / RFU PLEKHG5 (11743358_a_at) / Fold change /veh PLEKHG5 (11743358_a_at) / RFU ZSCAN30 (11745921_a_at) / Fold change /veh ZSCAN30 (11745921_a_at) / RFU CMKLR1 (11741424_a_at) / Fold change /veh CMKLR1 (11741424_a_at) / RFU LOC101060620 /// MAPK8IP1 (11723275_at) / Fold change /veh LOC101060620 /// MAPK8IP1 (11723275_at) / RFU SPTSSB (11747773_x_at) / Fold change /veh SPTSSB (11747773_x_at) / RFU PRSS12 (11739890_at) / Fold change /veh PRSS12 (11739890_at) / RFU BIN1 (11741810_x_at) / Fold change /veh BIN1 (11741810_x_at) / RFU WNT11 (11732464_a_at) / Fold change /veh WNT11 (11732464_a_at) / RFU C10orf10 (11716521_a_at) / Fold change /veh C10orf10 (11716521_a_at) / RFU C5orf56 (11738089_at) / Fold change /veh C5orf56 (11738089_at) / RFU CYB561 (11721691_x_at) / Fold change /veh CYB561 (11721691_x_at) / RFU ANKRD19P (11752326_a_at) / Fold change /veh ANKRD19P (11752326_a_at) / RFU OR2T12 /// OR2T33 /// OR2T8 (11738714_s_at) / Fold change /veh OR2T12 /// OR2T33 /// OR2T8 (11738714_s_at) / RFU VCAN (11748164_a_at) / Fold change /veh VCAN (11748164_a_at) / RFU JSRP1 (11732532_at) / Fold change /veh JSRP1 (11732532_at) / RFU KRTAP10-11 (11738290_x_at) / Fold change /veh KRTAP10-11 (11738290_x_at) / RFU MYO3A (11730013_a_at) / Fold change /veh MYO3A (11730013_a_at) / RFU EBF3 (11725865_a_at) / Fold change /veh EBF3 (11725865_a_at) / RFU CAMK2N1 (11719241_x_at) / Fold change /veh CAMK2N1 (11719241_x_at) / RFU C5orf56 (11738088_a_at) / Fold change /veh C5orf56 (11738088_a_at) / RFU OLFML3 (11715873_a_at) / Fold change /veh OLFML3 (11715873_a_at) / RFU LOC100653217 /// NTM (11731650_a_at) / Fold change /veh LOC100653217 /// NTM (11731650_a_at) / RFU MAPK11 (11762145_a_at) / Fold change /veh MAPK11 (11762145_a_at) / RFU FIZ1 (11724087_x_at) / Fold change /veh FIZ1 (11724087_x_at) / RFU OASL (11726364_x_at) / Fold change /veh OASL (11726364_x_at) / RFU SOX15 (11748057_x_at) / Fold change /veh SOX15 (11748057_x_at) / RFU CD79A (11719716_a_at) / Fold change /veh CD79A (11719716_a_at) / RFU HIST1H1D (11736915_at) / Fold change /veh HIST1H1D (11736915_at) / RFU CASKIN2 (11723855_a_at) / Fold change /veh CASKIN2 (11723855_a_at) / RFU LOC730098 (11760151_x_at) / Fold change /veh LOC730098 (11760151_x_at) / RFU OR4N2 (11742367_at) / Fold change /veh OR4N2 (11742367_at) / RFU PRRT2 (11749266_a_at) / Fold change /veh PRRT2 (11749266_a_at) / RFU SNX32 (11753110_a_at) / Fold change /veh SNX32 (11753110_a_at) / RFU CDHR5 (11726645_a_at) / Fold change /veh CDHR5 (11726645_a_at) / RFU RCAN1 (11760418_a_at) / Fold change /veh RCAN1 (11760418_a_at) / RFU FAM167A (11723789_a_at) / Fold change /veh FAM167A (11723789_a_at) / RFU FAM26E (11764081_at) / Fold change /veh FAM26E (11764081_at) / RFU ISYNA1 (11749810_s_at) / Fold change /veh ISYNA1 (11749810_s_at) / RFU ACY1 (11761880_at) / Fold change /veh ACY1 (11761880_at) / RFU 11764098_at / Fold change /veh 11764098_at / RFU SAMD14 (11745864_x_at) / Fold change /veh SAMD14 (11745864_x_at) / RFU NPB (11741838_a_at) / Fold change /veh NPB (11741838_a_at) / RFU TMPRSS6 (11731388_a_at) / Fold change /veh TMPRSS6 (11731388_a_at) / RFU KRTAP10-2 (11738614_at) / Fold change /veh KRTAP10-2 (11738614_at) / RFU ARHGAP8 /// PRR5-ARHGAP8 (11727945_x_at) / Fold change /veh ARHGAP8 /// PRR5-ARHGAP8 (11727945_x_at) / RFU KRTAP5-7 /// NADSYN1 (11734609_at) / Fold change /veh KRTAP5-7 /// NADSYN1 (11734609_at) / RFU RASL12 (11751679_a_at) / Fold change /veh RASL12 (11751679_a_at) / RFU CDKN2B (11736163_a_at) / Fold change /veh CDKN2B (11736163_a_at) / RFU PRF1 (11729649_at) / Fold change /veh PRF1 (11729649_at) / RFU, ZNF638 /// ZNF638-IT1 / Fold change vs veh, ZNF638 /// ZNF638-IT1 / RFU, PANK3 / Fold change vs veh, PANK3 / RFU, SH3YL1 / Fold change vs veh, SH3YL1 / RFU, ZEB2 / Fold change vs veh, ZEB2 / RFU, NRIP1 / Fold change vs veh, NRIP1 / RFU, PTTG1IP / Fold change vs veh, PTTG1IP / RFU, CAPN2 / Fold change vs veh, CAPN2 / RFU, MED14 / Fold change vs veh, MED14 / RFU, SNORA58 / Fold change vs veh, SNORA58 / RFU, C1orf63 / Fold change vs veh, C1orf63 / RFU, LRRFIP1 / Fold change vs veh, LRRFIP1 / RFU, NDUFAF7 / Fold change vs veh, NDUFAF7 / RFU, SLC12A2 / Fold change vs veh, SLC12A2 / RFU, IBTK / Fold change vs veh, IBTK / RFU, ESF1 / Fold change vs veh, ESF1 / Fold change vs veh, TMEM50B / RFU, TAOK1 / Fold change vs veh, TAOK1 / RFU, ACBD3 / Fold change vs veh, ACBD3 / RFU, TMA16 / Fold change vs veh, TMA16 / RFU, RWDD3 / Fold change vs veh, RWDD3 / RFU, BCAT1 / Fold change vs veh, BCAT1 / RFU, EDEM3 / Fold change vs veh, EDEM3 / RFU, TMEM33 / Fold change vs veh, TMEM33 / RFU, WDR75 / Fold change vs veh, WDR75 / RFU, AHCTF1 / Fold change vs veh, AHCTF1 / RFU, TFRC / Fold change vs veh, TFRC / RFU, ZDHHC17 / Fold change vs veh, ZDHHC17 / RFU, NOM1 / Fold change vs veh, NOM1 / RFU, ARL8B / Fold change vs veh, ARL8B / RFU, ZBTB11 / Fold change vs veh, ZBTB11 / RFU, TAMM41 / Fold change vs veh, TAMM41 / RFU, KIAA1704 /// LOC100996395 / Fold change vs veh, KIAA1704 /// LOC100996395 / RFU, ING1 / Fold change vs veh, ING1 / RFU, TRMT61B / Fold change vs veh, TRMT61B / RFU, FUBP3 / Fold change vs veh, FUBP3 / RFU, TP53 / Fold change vs veh, TP53 / RFU, TNKS2 / Fold change vs veh, TNKS2 / RFU, ZFP14 / Fold change vs veh, ZFP14 / RFU, ACTR2 / Fold change vs veh, ACTR2 / RFU, PPP3R1 / Fold change vs veh, PPP3R1 / RFU, PIK3R1 / Fold change vs veh, PIK3R1 / RFU, HNRNPA1 / Fold change vs veh, HNRNPA1 / RFU, RNF170 / Fold change vs veh, RNF170 / RFU, ZNF28 / Fold change vs veh, ZNF28 / RFU, RNGTT / Fold change vs veh, RNGTT / RFU, OGT / Fold change vs veh, OGT / RFU, BRD1 / Fold change vs veh, BRD1 / RFU, MARS / Fold change vs veh, MARS / RFU, ZNF655 / Fold change vs veh, ZNF655 / RFU, FAHD1 / Fold change vs veh, FAHD1 / RFU, BDP1 / Fold change vs veh, BDP1 / RFU, LRRCC1 / Fold change vs veh, LRRCC1 / RFU, ARID1A / Fold change vs veh, ARID1A / RFU, ZNF146 / Fold change vs veh, ZNF146 / RFU, ZNF330 / Fold change vs veh, ZNF330 / RFU, GPN3 / Fold change vs veh, GPN3 / RFU, C9orf123 / Fold change vs veh, C9orf123 / RFU, N4BP2L2 / Fold change vs veh, N4BP2L2 / RFU, ARFIP1 / Fold change vs veh, ARFIP1 / RFU, FAM179B / Fold change vs veh, FAM179B / RFU, BCL10 / Fold change vs veh, BCL10 / RFU, UHRF1BP1L / Fold change vs veh, UHRF1BP1L / RFU, BET1 / Fold change vs veh, BET1 / RFU, CNOT2 / Fold change vs veh, CNOT2 / RFU, ZNF268 / Fold change vs veh, ZNF268 / Fold change vs veh, ZNF507 / RFU, DGCR2 / Fold change vs veh, DGCR2 / RFU, WDSUB1 / Fold change vs veh, WDSUB1 / Fold change vs veh, HSP90B1 /// MIR3652 / RFU, ADSS / Fold change vs veh, ADSS / RFU, GK / Fold change vs veh, GK / RFU, ZNF148 / Fold change vs veh, ZNF148 / RFU, TAF9 / Fold change vs veh, TAF9 / RFU, SLC1A5 / Fold change vs veh, SLC1A5 / RFU, SLMO2 / Fold change vs veh, SLMO2 / RFU, ABCC4 / Fold change vs veh, ABCC4 / RFU, LOC101060439 /// RAP1B / Fold change vs veh, LOC101060439 /// RAP1B / RFU, RFX7 / Fold change vs veh, RFX7 / RFU, GTPBP10 / Fold change vs veh, GTPBP10 / RFU, CNEP1R1 / Fold change vs veh, CNEP1R1 / RFU, BIVM-ERCC5 /// ERCC5 / Fold change vs veh, BIVM-ERCC5 /// ERCC5 / RFU, ILF3 / Fold change vs veh, ILF3 / RFU 11762660_at / Fold change /veh 11762660_at / RFU VCAN (11757783_s_at) / Fold change /veh VCAN (11757783_s_at) / RFU DDX43 (11728927_at) / Fold change /veh DDX43 (11728927_at) / RFU KRT8 (11758188_x_at) / Fold change /veh KRT8 (11758188_x_at) / RFU NKD1 (11759106_at) / Fold change /veh NKD1 (11759106_at) / RFU SRD5A1 (11742802_a_at) / Fold change /veh SRD5A1 (11742802_a_at) / RFU TPSAB1 /// TPSB2 (11721975_s_at) / Fold change /veh TPSAB1 /// TPSB2 (11721975_s_at) / RFU GSTM3 (11746129_a_at) / Fold change /veh GSTM3 (11746129_a_at) / RFU IL23R (11737362_x_at) / Fold change /veh IL23R (11737362_x_at) / RFU TMEM51 (11727254_a_at) / Fold change /veh TMEM51 (11727254_a_at) / RFU PIWIL2 (11732686_x_at) / Fold change /veh PIWIL2 (11732686_x_at) / RFU ORM1 (11744905_x_at) / Fold change /veh ORM1 (11744905_x_at) / RFU CCDC152 (11743942_at) / Fold change /veh CCDC152 (11743942_at) / RFU ECM1 (11717891_a_at) / Fold change /veh ECM1 (11717891_a_at) / RFU IL23R (11748794_a_at) / Fold change /veh IL23R (11748794_a_at) / RFU TNFAIP8L3 (11732012_x_at) / Fold change /veh TNFAIP8L3 (11732012_x_at) / RFU MBOAT4 (11741988_at) / Fold change /veh MBOAT4 (11741988_at) / RFU 11764193_at / Fold change /veh 11764193_at / RFU TMEM53 (11763286_at) / Fold change /veh TMEM53 (11763286_at) / RFU MAGEB2 (11727129_at) / Fold change /veh MAGEB2 (11727129_at) / RFU TMEM200A (11744735_a_at) / Fold change /veh TMEM200A (11744735_a_at) / RFU CCDC152 (11751479_a_at) / Fold change /veh CCDC152 (11751479_a_at) / RFU FAM211A (11726209_a_at) / Fold change /veh FAM211A (11726209_a_at) / RFU RGS16 (11746705_a_at) / Fold change /veh RGS16 (11746705_a_at) / RFU VCAN (11755009_s_at) / Fold change /veh VCAN (11755009_s_at) / RFU RHOB (11743442_s_at) / Fold change /veh RHOB (11743442_s_at) / RFU RGS16 (11720943_a_at) / Fold change /veh RGS16 (11720943_a_at) / RFU RGS16 (11720944_at) / Fold change /veh RGS16 (11720944_at) / RFU, VPS4B / Fold change vs veh, VPS4B / RFU, CREB1 / Fold change vs veh, CREB1 / RFU, DNAJC13 / Fold change vs veh, DNAJC13 / RFU, GNAQ / Fold change vs veh, GNAQ / RFU, CDK5R1 / Fold change vs veh, CDK5R1 / RFU, ZRANB3 / Fold change vs veh, ZRANB3 / RFU, CUL4A / Fold change vs veh, CUL4A / RFU, CCNY / Fold change vs veh, CCNY / RFU, UFL1 / Fold change vs veh, UFL1 / RFU, COG3 / Fold change vs veh, COG3 / RFU, DIAPH2 / Fold change vs veh, DIAPH2 / RFU, SKA2 / Fold change vs veh, SKA2 / RFU, AFF3 / Fold change vs veh, AFF3 / RFU, LMF1 / Fold change vs veh, LMF1 / RFU, IPO11 / Fold change vs veh, IPO11 / RFU, DFFB / Fold change vs veh, DFFB / RFU, FOXP1 / Fold change vs veh, FOXP1 / RFU, CARD8 / Fold change vs veh, CARD8 / RFU, STRN3 / Fold change vs veh, STRN3 / RFU, ADK / Fold change vs veh, ADK / RFU, RASSF2 / Fold change vs veh, RASSF2 / RFU, WIPF1 / Fold change vs veh, WIPF1 / RFU, LARP1B / Fold change vs veh, LARP1B / RFU, RASA1 / Fold change vs veh, RASA1 / RFU, RB1 / Fold change vs veh, RB1 / RFU, PPFIA1 / Fold change vs veh, PPFIA1 / RFU, MAT2A / Fold change vs veh, MAT2A / RFU, CCT5 / Fold change vs veh, CCT5 / RFU, WDR92 / Fold change vs veh, WDR92 / RFU, CUX1 / Fold change vs veh, CUX1 / RFU, TTC7A / Fold change vs veh, TTC7A / RFU, TMEM135 / Fold change vs veh, TMEM135 / RFU, DEPTOR / Fold change vs veh, DEPTOR / RFU, CPM / Fold change vs veh, CPM / RFU, DNAJB6 / Fold change vs veh, DNAJB6 / RFU, CACNA2D3 / Fold change vs veh, CACNA2D3 / RFU, DTX4 / Fold change vs veh, DTX4 / RFU, TFCP2 / Fold change vs veh, TFCP2 / RFU, GMCL1 /// GMCL1P1 / Fold change vs veh, GMCL1 /// GMCL1P1 / RFU, AEBP2 / Fold change vs veh, AEBP2 / RFU, SNHG1 /// SNORD22 /// SNORD25 /// SNORD26 /// SNORD27 /// SNORD28 /// SNORD29 /// SNORD31 / Fold change vs veh, SNHG1 /// SNORD22 /// SNORD25 /// SNORD26 /// SNORD27 /// SNORD28 /// SNORD29 /// SNORD31 / Fold change (Aza/veh), C12orf56 (ProbeSet 11735607_a_at) / Fold change (ACY-1035/veh), C12orf56 (ProbeSet 11735607_a_at) / Fold change (Aza/veh), FGFR1OP (ProbeSet 11751329_s_at) / Fold change (ACY-1035/veh), FGFR1OP (ProbeSet 11751329_s_at) / Fold change (Aza/veh), VPS36 (ProbeSet 11739960_a_at) / Fold change (ACY-1035/veh), VPS36 (ProbeSet 11739960_a_at) / RFU SYPL1 (11715823_x_at) / Fold change /veh SYPL1 (11715823_x_at) / RFU IGFBP7 (11715501_s_at) / Fold change /veh IGFBP7 (11715501_s_at) / RFU REEP3 (11722064_at) / Fold change /veh REEP3 (11722064_at) / RFU IGLL1 (11728026_x_at) / Fold change /veh IGLL1 (11728026_x_at): dose or concentration left out as unconfirmed
# Conditions: ProbeSet 11756954_s_at; LIST B
structure (smiles),measurement,value
Nc1ncn([C@@H]2O[C@H](CO)[C@@H](O)[C@H]2O)c(=O)n1 [azacitidine],"Fold change vs veh, ZEB2",0.83
